According to patent US20070071833A1, “Fungicidal mixtures for controlling rice pathogens” (BASF Aktiengesellschaft, priority 2003, published 2007):

Tested on: Cochliobolus miyabeanus
Assay: activity against brown spot of rice caused by Cochliobolus miyabeanus, protective application (potted rice seedlings)
Type: in vivo
Settings: individual active compound, rice cultivar Tai-Nong 67, protective spray, evaluated after six days
Description: The active compounds, separately or jointly, were prepared as a stock solution with 0.25% by weight of active compound in acetone or DMSO. 1% by weight of the emulsifier Uniperol® EL (wetting agent having emulsifying and dispersing action based on ethoxylated alkylphenols) was added to this solution, and the solution was diluted with water to the desired concentration.
Use example—activity against brown spot of rice caused by Cochliobolus miyabeanus, protective application
Leaves of potted rice seedlings of the cultivar “Tai-Nong 67” were sprayed to runoff point with an aqueous suspension of the concentration of active compound stated below. The next day, the plants were inoculated with an aqueous spore suspension of Cochliobolus miyabeanus. The test plants were then placed in climatized chambers at 22-24° C. and 95-99% relative atmospheric humidity for six days. The extent of the development of the infection on the leaves was then determined visually.
Evaluation was carried out by determining the percentage of infected leaf area. These percentages were converted into efficacies.
The efficacy (E) is calculated as follows using Abbot's formula: E=(1−α/β)·100 • α corresponds to the fungicidal infection of the treated plants in % and • β corresponds to the fungicidal infection of the untreated (control) plants in %
An efficacy of 0 means that the infection level of the treated plants corresponds to that of the untreated control plants; an efficacy of 100 means that the treated plants were not infected.
The expected efficacies of mixtures of active compounds are determined using Colby's formula (R. S. Colby, Weeds, 15, 20-22, 1967) and compared with the observed efficacies.
Colby's formula: E=x+y−x·y/100 • E expected efficacy, expressed in % of the untreated control, when using the mixture of the active compounds A and B at the concentrations a and b • x efficacy, expressed in % of the untreated control, when using the active compound A at the concentration a • y efficacy, expressed in % of the untreated control, when using the active compound B at the concentration b

| SMILES | Efficacy in % of the untreated control (1 ppm in the spray liquor) [%] | Efficacy in % of the untreated control (4 ppm in the spray liquor) [%] |
| --- | --- | --- |
| CC1CCN(c2c(-c3c(F)cc(F)cc3F)c(Cl)nc3ncnn23)CC1 [I, 5-chloro-7-(4-methylpiperidin-1-yl)-6-(2,4,6-trifluorophenyl)-[1,2,4]tri-azolo[1,5-a]pyrimidine] | 4 | 28 |
| S1SSSSSSS1 [II (sulfur), sulfur] | 4 | 4 |
| CC1CCN(c2c(-c3c(F)cccc3F)c(Cl)nc3ncnn23)CC1 [comparative compound A] | 28 | 40 |
| C[C@H](Nc1c(-c2c(F)cc(F)cc2F)c(Cl)nc2ncnn12)C(F)(F)F [comparative compound B] | 0 | 16 |
